Reference: patent publication US6656969B2, “Methods and compositions for inhibiting the proliferation of prostate cancer cells” (Mayo Foundation for Medical Education and Research, priority 2001, dated 2003)

Columns and labels:
[1] = system: hsp70; test: Level of hsp70; assay type: cell-based
[2] = system: androgen-regulated genes (NKX 3.1, ODC, fkbp 51, Drg-1, PSA); test: Northern blot of androgen-regulated genes in LNCaP cells; assay type: cell-based, human
Procedure: A denaturing RNA gel was run and transferred onto a nylon membrane (BioRad) according to the GeneScreen protocol (New England Nuclear). Fifteen μg of total RNA was loaded in each lane. cDNAs for PSA, ornithine decarboxylase (ODC), NKX 3.1, fkbp 51, Drg-1 and glyceraldehyde-3-phosphate dehydogenase (GAPDH) were labeled with [P^32]dCTP by random priming and used as probes. The hybridizations were performed according to the recommended protocol using ExpressHyb Hybridization Solution (Clontech, Palo Alto, Calif.). The films were autoradiographed at −70° C. overnight.

[3] = system: LNCaP cells; test: Cell proliferation (MTS) assay, androgen-stimulated growth; assay type: cell-based, human; conditions: six days; for androgen-stimulated cell growth: with 1 nM mibolerone (Mib)
Procedure: (§1) A human prostate cancer cell line, LNCaP (American Type Culture Collection (ATCC), Manassas, Va.), was cultured in RPMI 1640 medium (Mediatech, Herndon, Va.) supplemented with 5% fetal bovine serum (FBS) at 37° C. and 5% CO2 until reaching approximately 50-70% confluence. The media were changed to serum-free RPMI 1640 24 hrs prior to experiments being performed to deplete undesired steroids. […] Equivalent amounts of solvent were added to control cells.
(§2) For cell proliferation and PSA expression assays, LNCaP cells were seeded at 2×10^4 cells per well in 24 well plates. […] Six days after treatment, 400 μl of spent media were collected for total PSA protein measurements by the Tandem-E PSA kit (Hybritech Inc. San Diego, Calif.). An MTS assay was performed (Promega, Madison, Wis.) for measuring cell viability. Four wells per treatment were used for the above assays and it was repeated twice. PSA levels in spent media were normalized to cell number.

[4] = system: ARA70; test: Level of androgen receptor specific co-activator ARA70; assay type: cell-based
[5] = system: c-fos; test: Level of c-fos in LNCaP cells; assay type: cell-based, human
[6] = system: hsp90; test: Level of hsp90; assay type: cell-based
[7] = system: PSA; test: PSA quantification in spent media (Tandem-E PSA kit); assay type: cell-based, human; conditions: LNCaP cells, 1 nM Mib, six days, normalized to cell number
Procedure: as §1, §2

[8] = biological target: T1, androgen receptor (Homo sapiens, UniProt P10275, T878A); assay type: cell-based; conditions: LNCaP cells, 3.2 nM Mib
T1 construct: LNCaP cells express the androgen receptor; endogenous in cells; host or cells: LNCaP
T1 sequence (P10275 whole entry T878A): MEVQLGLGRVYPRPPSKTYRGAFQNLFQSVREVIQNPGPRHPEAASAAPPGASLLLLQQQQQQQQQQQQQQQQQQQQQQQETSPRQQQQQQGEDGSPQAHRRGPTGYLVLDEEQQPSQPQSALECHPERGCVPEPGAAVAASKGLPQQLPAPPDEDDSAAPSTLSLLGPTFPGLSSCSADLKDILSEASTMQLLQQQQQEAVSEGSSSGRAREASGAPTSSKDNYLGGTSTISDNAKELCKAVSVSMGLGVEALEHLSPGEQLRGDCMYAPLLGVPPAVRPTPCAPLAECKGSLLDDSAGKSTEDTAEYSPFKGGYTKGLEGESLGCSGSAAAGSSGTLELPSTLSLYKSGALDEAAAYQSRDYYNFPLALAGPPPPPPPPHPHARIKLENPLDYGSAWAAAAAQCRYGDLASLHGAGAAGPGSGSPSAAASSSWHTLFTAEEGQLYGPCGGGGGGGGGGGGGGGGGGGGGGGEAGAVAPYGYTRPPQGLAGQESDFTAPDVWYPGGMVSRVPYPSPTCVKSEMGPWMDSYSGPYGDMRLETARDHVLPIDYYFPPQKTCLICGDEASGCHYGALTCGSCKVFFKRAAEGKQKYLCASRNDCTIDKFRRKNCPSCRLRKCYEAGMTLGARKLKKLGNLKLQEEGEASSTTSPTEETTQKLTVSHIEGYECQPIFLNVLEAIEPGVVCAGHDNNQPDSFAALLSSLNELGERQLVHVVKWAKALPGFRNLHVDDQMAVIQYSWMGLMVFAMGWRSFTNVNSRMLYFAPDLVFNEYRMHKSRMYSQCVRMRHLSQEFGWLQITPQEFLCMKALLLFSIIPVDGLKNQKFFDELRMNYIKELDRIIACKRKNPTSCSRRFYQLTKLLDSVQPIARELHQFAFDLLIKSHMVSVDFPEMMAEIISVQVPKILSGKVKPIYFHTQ
Procedure: LNCaP or PC-3 cells were plated in 60 mm dishes. Cells were transiently transfected as described (Zhang et al., 1999, Endocrin, 140:1665-71) with either 3 copies of an hK2 ARE in a pGL3 promoter plasmid, CMV-β-gal, a human androgen receptor expression vector or a c-jun expression vector as indicated. The androgen receptor and c-jun constructs were driven by an SV40 promoter. LNCaP cells were transfected using liposome containing dimethyldioctadecyl-ammonium bromide (DDAB) (Sigma) and L-α-lecithin (Sigma) (4:10 w/w) and PC-3 cells were transfected using lipofectamine (Gibco BRL, Grand Island, N.Y.). […] Whole cell extracts were prepared according to Ren et al., (2000, Oncogene, 19:1924-32) and a luciferase assay was performed according to manufacturer's instructions (Promega). The CMV-β-galactosidase (β-gal) expression vector and the parental vector (pGL3) were included as controls in the above transfections. β-gal activity or total protein using the Bradford assay (BioRad, Hercules, Calif.) were assayed for normalization purposes. Luciferase activities were normalized to β-gal activities and presented as relative light units/mU β-gal. Each transfection was done three times and results were analyzed by the Student's t-test. A p<0.05 was accepted as the level of significance.

SMILES	levels of hsp70 [1]	androgen-induced mRNA of NKX 3.1, ODC, fkbp 51, Drg-1 and PSA ([2]; 1 nM Mib, DHA at 150 μM or higher)	androgen-stimulated cell growth [3]	cell growth without androgen stimulation ([3]; without Mib)	levels of ARA70 [4]	levels of c-fos [5]	levels of hsp90 [6]	androgen-stimulated PSA secretion [7]	mRNA and protein levels of PSA and hK2 ([2]; summary statement)	ARE luciferase activity, androgen alone [8]
CCC=CCC=CCC=CCC=CCC=CC/C=C\CCC(=O)O [DHA, cis-4,7, 10, 13, 16, 19-docosahexaenoic acid]	no inhibitory effects were observed	greatly inhibited the androgen-induced response	dose-dependent statistically significant decrease in cell growth	little response	no inhibitory effects were observed	unaltered	no inhibitory effects were observed	decrease in androgen-stimulated PSA secretion	–	–
CCC=CCC=CCC=CCC=CC/C=C\CCCC(=O)O [EPA, cis-5,8, 11, 14, 17-eicosapentaenoic acid]	no inhibitory effects were observed	–	decreased androgen-stimulated cell growth	–	–	–	no inhibitory effects were observed	required higher EPA concentrations for significant inhibition	reduce both the mRNA and protein levels	–
C[C@@H]1CC2=CC(=O)CC[C@@H]2[C@H]2CC[C@@]3(C)[C@@H](CC[C@]3(C)O)[C@@H]21 [Mib, mibolerone]	–	–	–	–	–	–	–	–	–	strong androgenic induction of luciferase activity
